Results: ChEMBL document CHEMBL3885861, “Open TG-GATES”

Species: Rattus norvegicus
Test: Open TG-GATES - Regimen: Single
Type: toxicity, organism-based, Sprague-Dawley
Parameters: regimen Single, gender Male, age 6 weeks
Conditions: in vivo, po, 30 mg/kg, route gavage, dose level Middle; for APTT / Bas / Eos / Fbg / Hb / Ht / Lym / MCH / MCHC / MCV / Mono / Neu / PT / Plat / RBC / Ret / WBC: tissue Blood; for KIDNEY_L / KIDNEY_R / KIDNEY_TOTAL: tissue Kidney; for LIVER: tissue Liver; for A/G / ALP / ALT / AST / BUN / CRE / Ca / Cl / DBIL / GLC / IP / K / LDH / Na / PL / RALB / TBIL / TC / TG / TP / gamma-GTP: tissue Plasma

CCN(CC)N=O [N-NITROSODIETHYLAMINE]
TERMINAL_BW (3 h): 220.7 g | APTT (3 h): 19.6 s | Bas (3 h): 0% | Eos (3 h): 1% | Fbg (3 h): 200.2 mg/dL | Hb (3 h): 13.1 g/dL | Ht (3 h): 37.7% | Lym (3 h): 80.2% | MCH (3 h): 21.4 pg | MCHC (3 h): 34.6% | MCV (3 h): 61.8 fL | Mono (3 h): 1.6% | Neu (3 h): 16.6% | PT (3 h): 12 s | Plat (3 h): 118.4 x10_4/uL | RBC (3 h): 610.2 x10_4/ul | Ret (3 h): 7.2% | WBC (3 h): 67.1 x10_2/uL | KIDNEY_L (3 h): 1 g | KIDNEY_R (3 h): 1 g | KIDNEY_TOTAL (3 h): 2 g | LIVER (3 h): 9.5 g | A/G (3 h): 1.6 | ALP (3 h): 868.6 IU/L | ALT (3 h): 37.8 IU/L | AST (3 h): 72 IU/L | BUN (3 h): 11 mg/dL | CRE (3 h): 0.4 mg/dL | Ca (3 h): 10.1 mg/dL | Cl (3 h): 102.4 meq/L | DBIL (3 h): 0.06 mg/dL | GLC (3 h): 195.6 mg/dL | IP (3 h): 8.6 mg/dL | K (3 h): 3.6 meq/L | LDH (3 h): 179.2 IU/L | Na (3 h): 140.6 meq/L | PL (3 h): 130.2 mg/dL | RALB (3 h): 3.3 g/dL | TBIL (3 h): 0.1 mg/dL | TC (3 h): 82.6 mg/dL | TG (3 h): 38.6 mg/dL | TP (3 h): 5.4 g/dL | gamma-GTP (3 h): 0.8 IU/L | TERMINAL_BW (6 h): 224.6 g | APTT (6 h): 18.5 s | Bas (6 h): 0.6% | Eos (6 h): 1% | Fbg (6 h): 234.2 mg/dL | Hb (6 h): 13.4 g/dL | Ht (6 h): 38.8% | Lym (6 h): 78.8% | MCH (6 h): 21.8 pg | MCHC (6 h): 34.5% | MCV (6 h): 63.1 fL | Mono (6 h): 2.8% | Neu (6 h): 16.2% | PT (6 h): 12.4 s | Plat (6 h): 135.1 x10_4/uL | RBC (6 h): 615.6 x10_4/ul | Ret (6 h): 7.7% | WBC (6 h): 111.7 x10_2/uL | KIDNEY_L (6 h): 1 g | KIDNEY_R (6 h): 1 g | KIDNEY_TOTAL (6 h): 1.9 g | LIVER (6 h): 9.9 g | A/G (6 h): 1.6 | ALP (6 h): 932.2 IU/L | ALT (6 h): 40.6 IU/L | AST (6 h): 78 IU/L | BUN (6 h): 14.2 mg/dL | CRE (6 h): 0.4 mg/dL | Ca (6 h): 10.3 mg/dL | Cl (6 h): 104.2 meq/L | DBIL (6 h): 0.072 mg/dL | GLC (6 h): 186.4 mg/dL | IP (6 h): 8.3 mg/dL | K (6 h): 3.9 meq/L | LDH (6 h): 224 IU/L | Na (6 h): 141 meq/L | PL (6 h): 130.8 mg/dL | RALB (6 h): 3.3 g/dL | TBIL (6 h): 0.1 mg/dL | TC (6 h): 81.4 mg/dL | TG (6 h): 37.8 mg/dL | TP (6 h): 5.4 g/dL | gamma-GTP (6 h): 1.6 IU/L | TERMINAL_BW (9 h): 224.1 g | APTT (9 h): 18.7 s | Bas (9 h): 0.4% | Eos (9 h): 1% | Fbg (9 h): 229 mg/dL | Hb (9 h): 13.7 g/dL | Ht (9 h): 39.6% | Lym (9 h): 79.6% | MCH (9 h): 21.5 pg | MCHC (9 h): 34.4% | MCV (9 h): 62.4 fL | Mono (9 h): 3% | Neu (9 h): 15% | PT (9 h): 12.4 s | Plat (9 h): 126.6 x10_4/uL | RBC (9 h): 635.4 x10_4/ul | Ret (9 h): 7.1% | WBC (9 h): 94.4 x10_2/uL | KIDNEY_L (9 h): 1 g | KIDNEY_R (9 h): 1 g | KIDNEY_TOTAL (9 h): 1.9 g | LIVER (9 h): 10 g | A/G (9 h): 1.7 | ALP (9 h): 978.4 IU/L | ALT (9 h): 45.6 IU/L | AST (9 h): 80.4 IU/L | BUN (9 h): 15.4 mg/dL | CRE (9 h): 0.4 mg/dL | Ca (9 h): 10.4 mg/dL | Cl (9 h): 103.4 meq/L | DBIL (9 h): 0.088 mg/dL | GLC (9 h): 186 mg/dL | IP (9 h): 8.6 mg/dL | K (9 h): 3.8 meq/L | LDH (9 h): 191.6 IU/L | Na (9 h): 141.2 meq/L | PL (9 h): 130.4 mg/dL | RALB (9 h): 3.5 g/dL | TBIL (9 h): 0.1 mg/dL | TC (9 h): 76.8 mg/dL | TG (9 h): 44.8 mg/dL | TP (9 h): 5.5 g/dL | gamma-GTP (9 h): 1.4 IU/L | TERMINAL_BW (24 h): 225 g | APTT (24 h): 17.9 s | Bas (24 h): 1% | Eos (24 h): 1% | Fbg (24 h): 217.4 mg/dL | Hb (24 h): 14 g/dL | Ht (24 h): 41.2% | Lym (24 h): 81% | MCH (24 h): 21.6 pg | MCHC (24 h): 33.9% | MCV (24 h): 63.8 fL | Mono (24 h): 3% | Neu (24 h): 13.6% | PT (24 h): 12.7 s | Plat (24 h): 125.9 x10_4/uL | RBC (24 h): 645.6 x10_4/ul | Ret (24 h): 6.7% | WBC (24 h): 95.1 x10_2/uL | KIDNEY_L (24 h): 1 g | KIDNEY_R (24 h): 1 g | KIDNEY_TOTAL (24 h): 2 g | LIVER (24 h): 9.5 g | A/G (24 h): 1.6 | ALP (24 h): 918.6 IU/L | ALT (24 h): 37.8 IU/L | AST (24 h): 71 IU/L | BUN (24 h): 12.8 mg/dL | CRE (24 h): 0.4 mg/dL | Ca (24 h): 10.7 mg/dL | Cl (24 h): 103.4 meq/L | DBIL (24 h): 0.084 mg/dL | GLC (24 h): 193 mg/dL | IP (24 h): 9 mg/dL | K (24 h): 3.9 meq/L | LDH (24 h): 212.4 IU/L | Na (24 h): 140.6 meq/L | PL (24 h): 135.8 mg/dL | RALB (24 h): 3.3 g/dL | TBIL (24 h): 0.1 mg/dL | TC (24 h): 78.4 mg/dL | TG (24 h): 47.2 mg/dL | TP (24 h): 5.3 g/dL | gamma-GTP (24 h): 1.4 IU/L
